Results: ChEMBL document CHEMBL5260795, “Antifungal potential of marine natural products” (Eur J Med Chem, 2017)
In brackets after ≈: the same amount, converted by molar mass.

Key:
Candida albicans [1] = experiment: Antimicrobial activity against Candida albicans; type: functional
Rhodotorula glutinis = experiment: Antimicrobial activity against Rhodotorula glutinis; type: functional
Saccharomyces cerevisiae [2] = experiment: Antimicrobial activity against Saccharomyces cerevisiae; type: functional
Candida albicans [3] = experiment: Antifungal activity against Candida albicans measured after 3 to 4 days by agar plate diffusion method; type: functional; details: time 3-4 day
Rhagastis acuta = experiment: Antifungal activity against Rhagastis acuta measured after 3 to 4 days by agar plate diffusion method; type: functional; details: time 3-4 day
Cryptococcus neoformans [4] = experiment: Antifungal activity against Cryptococcus neoformans measured after 3 to 4 days by agar plate diffusion method; type: functional; details: time 3-4 day
Ogataea angusta = experiment: Antifungal activity against Pichia angusta measured after 3 to 4 days by agar plate diffusion method; type: functional; details: time 3-4 day
Botrytis fabae = experiment: Antifungal activity against Botrytis fabae measured after 3 to 4 days by agar plate diffusion method; type: functional; details: time 3-4 day
Aspergillus niger [5] = experiment: Antifungal activity against Aspergillus niger measured after 3 to 4 days by agar plate diffusion method; type: functional; details: time 3-4 day
Candida albicans [6] = experiment: Antifungal activity against Candida albicans; type: functional, organism-based
Trichophyton rubrum [7] = experiment: Antimicrobial activity against Trichophyton rubrum; type: functional, organism-based
Candida tropicalis [8] = experiment: Antifungal activity against Candida tropicalis assessed as fungal growth inhibition; type: functional
Nannizzia gypsea [9] = experiment: Antifungal activity against Microsporum gypseum ATCC31388; type: functional
Alternaria brassicae = experiment: Antifungal activity against Alternaria brassicae assessed as inhibition of fungal growth; type: functional
Candida albicans [10] = experiment: Antifungal activity against amphotericin-B-resistant Candida albicans; type: functional, organism-based
Candida albicans [11] = experiment: Antifungal activity against wild type Candida albicans; type: functional, organism-based
Cryptococcus neoformans [12] = experiment: Antifungal activity against Cryptococcus neoformans; type: functional, organism-based
Saccharomyces cerevisiae [13] = experiment: Antifungal activity against Saccharomyces cerevisiae assessed as inhibition of fungal growth; type: functional, organism-based
Candida tropicalis [14] = experiment: Antifungal activity against clinical strain Candida tropicalis assessed as inhibition of fungal growth by atomatic microplate reader analysis; type: functional
Candida albicans [15] = experiment: Antifungal activity against Candida albicans ATCC76615 assessed as inhibition of fungal growth by atomatic microplate reader analysis; type: functional
Trichophyton rubrum [16] = experiment: Antifungal activity against Trichophyton rubrum assessed as inhibition of fungal growth by atomatic microplate reader analysis; type: functional
Pichia kudriavzevii = experiment: Antifungal activity against clinical strain Candida krusei assessed as inhibition of fungal growth by atomatic microplate reader analysis; type: functional
Cryptococcus neoformans [17] = experiment: Antifungal activity against Cryptococcus neoformans ATCC32609 assessed as inhibition of fungal growth by atomatic microplate reader analysis; type: functional
Aspergillus fumigatus [18] = experiment: Antifungal activity against clinical strain Aspergillus fumigatus assessed as inhibition of fungal growth by atomatic microplate reader analysis; type: functional
Aspergillus = experiment: Antimicrobial activity against Aspergillus; type: functional
Candida albicans [19] = experiment: Antifungal activity against amphotericin-B-resistant Candida albicans assessed as zone of inhibition 1 ug/disk; type: functional; details: dose 1 µg
Aspergillus fumigatus [20] = experiment: Antimicrobial activity against Aspergillus fumigatus; type: functional
Candida albicans [21] = experiment: Antifungal activity against Candida albicans ATCC 24433; type: functional
Candida albicans [22] = experiment: Antifungal activity against Candida albicans measured after 96 hrs by two fold serial dilution technique; type: functional
[23] = test system: Trichophyton mentagrophytes; experiment: Antifungal activity against Trichophyton mentagrophytes measured after 96 hrs by two fold serial dilution technique; type: functional
Nannizzia gypsea [24] = experiment: Antifungal activity against Microsporum gypseum measured after 96 hrs by two fold serial dilution technique; type: functional
Aspergillus niger [25] = experiment: Antifungal activity against Aspergillus niger measured after 96 hrs by two fold serial dilution technique; type: functional
Epidermophyton floccosum = experiment: Antifungal activity against Epidermophyton floccosum measured after 96 hrs by two fold serial dilution technique; type: functional
Aspergillus fumigatus [26] = experiment: Antifungal activity against Aspergillus fumigatus measured after 96 hrs by two fold serial dilution technique; type: functional
Fusarium oxysporum = experiment: Antifungal activity against Fusarium oxysporum measured after 96 hrs by two fold serial dilution technique; type: functional
Lindra thalassiae = experiment: Antifungal activity against Lindra thalassiae assessed as lethal dose; type: functional; details: Lindriella thalassiae; read-out: LD50 (the source's name)

CO[C@H]1C(=O)N[C@]2(O)CC(=O)N(C)CC(=O)N[C@H](Cc3c[nH]c4cc(Cl)ccc34)C(=O)NCC(=O)NC[C@H](O)CC(=O)N[C@H]([C@@H](O)[C@@H](O)C/C=C/C=C/c3ccccc3)[C@@H](O)C(=O)N[C@@H]12
MIC (Candida albicans [1]): 3.1 µg/mL (≈ 3.35 µM) | MIC (Rhodotorula glutinis): 0.6 µg/mL (≈ 0.648 µM) | MIC (Saccharomyces cerevisiae [2]): 1.6 µg/mL (≈ 1.73 µM)

CC[C@@H](CC(=O)C(Cl)Cl)[C@H](C)c1ccc([N+](=O)[O-])cc1
MIC (Candida albicans [3]): 0.1 µg/mL (≈ 0.314 µM) | MIC (Rhagastis acuta): 0.1 µg/mL (≈ 0.314 µM) | MIC (Cryptococcus neoformans [4]): 0.1 µg/mL (≈ 0.314 µM) | MIC (Ogataea angusta): 0.1 µg/mL (≈ 0.314 µM) | MIC (Botrytis fabae): 0.1 µg/mL (≈ 0.314 µM) | MIC (Aspergillus niger [5]): 0.1 µg/mL (≈ 0.314 µM)

C=C[C@@H]1C[C@H](C)C[C@H](C)[C@H]1c1c(O)ccn(O)c1=O
IC50 (Candida albicans [6]): 6.9 µg/mL (≈ 26.2 µM) | IC50 (Trichophyton rubrum [7]): 1.07 µg/mL (≈ 4.06 µM)

C=C(C)CCC[C@@]1(C)OC(=O)[C@]23CC=C4C(=CC[C@H]5C(C)(C)[C@@H](O[C@@H]6OC[C@@H](O[C@@H]7O[C@H](CO)[C@@H](O)[C@H](O[C@@H]8O[C@H](CO)[C@@H](O)[C@H](O)[C@H]8O)[C@H]7O)[C@H](O)[C@H]6O[C@@H]6O[C@H](CO)[C@@H](O[C@@H]7OC[C@@H](O)[C@H](O[C@@H]8O[C@H](CO)[C@@H](O)[C@H](OC)[C@H]8O)[C@H]7O)[C@H](O)[C@H]6O)CC[C@]45C)[C@@]2(C)CC(=O)[C@@H]13
MIC (Candida tropicalis [8]): 1.4 µM (≈ 1.95 µg/mL) | MIC (Nannizzia gypsea [9]): 1.4 µM (≈ 1.95 µg/mL)

COc1ccc2c(c1OC)O[C@]1(C(=O)N3O[C@@H]4C(=CC=C[C@H]4O)C[C@@]3(SC)C(=O)N1C)[C@@H]2SC
MIC (Alternaria brassicae): 4 µg/mL (≈ 7.9 µM)

CC(/C=C/c1ccccc1)=C\[C@H](O)[C@@H]1CC(=O)N[C@@H](CO)C(=O)NC2Cn3cc([n+]([C@@H]4O[C@H](CO)[C@H](O)[C@H](O)[C@H]4O)c3)CC(NC(=O)CCC[C@@H](C(=O)[O-])NC(=O)[C@@H](O)CNC(=O)[C@H](Cc3ccc(Br)cc3)NC(=O)[C@H]([C@@H](O)C(N)=O)NC(=O)[C@H](CC(N)=O)NC2=O)C(=O)N[C@@H]([C@H](C)O)C(=O)N[C@@H](CO)C(=O)N[C@@H](Cc2ccccc2)C(=O)N1 (stereo partly specified)
IC50 (Candida albicans [10]): 3.49 µg/mL (≈ 2.01 µM) | IC50 (Candida albicans [11]): 7.84 µg/mL (≈ 4.52 µM)

CCC(C)CC(C)/C=C(C)/C=C/CC(C)C(O)C(C)/C=C(C)/C=C/C(O)C(C)c1cc(O)c(C2OC(CO)CC(O)C2O)c(=O)o1 (stereo unspecified)
IC50 (Cryptococcus neoformans [12]): 1.56 µg/mL (≈ 2.41 µM) | IC50 (Saccharomyces cerevisiae [13]): 1.56 µg/mL (≈ 2.41 µM)

CO[C@@H]1[C@@H](O)[C@H](O[C@@H]2[C@@H](O)[C@H](O[C@@H]3[C@@H](O)[C@H](O)[C@@H](O[C@H]4[C@H](O[C@H]5CC[C@@H]6C7=C[C@H](O)[C@]89C(=O)O[C@@](C)(CCC=C(C)C)[C@H]8CC[C@@]9(C)[C@@H]7CC[C@H]6C5(C)C)OC[C@@H](O[C@@H]5O[C@H](CO)[C@@H](O)[C@H](O[C@@H]6O[C@H](CO)[C@@H](O)[C@H](OC)[C@H]6O)[C@H]5O)[C@@H]4O)O[C@H]3C)O[C@H](CO)[C@H]2O)O[C@H](CO)[C@H]1O
MIC (Candida tropicalis [14]): 0.7 µM (≈ 0.988 µg/mL) | MIC (Candida albicans [15]): 0.7 µM (≈ 0.988 µg/mL) | MIC (Trichophyton rubrum [16]): 0.7 µM (≈ 0.988 µg/mL) | MIC (Pichia kudriavzevii): 0.7 µM (≈ 0.988 µg/mL) | MIC (Cryptococcus neoformans [17]): 0.7 µM (≈ 0.988 µg/mL) | MIC (Aspergillus fumigatus [18]): 0.7 µM (≈ 0.988 µg/mL)

COc1c(Br)cc(Br)cc1Oc1c(O)cc(Br)cc1Br
MIC (Aspergillus): 1.95 µg/mL (≈ 3.67 µM)

CCC(C)CC(C)[C@@H](O)[C@@H](C)C(=O)N[C@H](CN)C(=O)N[C@@H]([C@H](O)[C@H](O)C(=O)N[C@H](C(=O)N[C@H]1C(=O)N[C@H]([C@@H](C)O)C(=O)N[C@H](CCCN)C(=O)N[C@@H](CC(C)C)C(=O)N(C)[C@@H](CCC(N)=O)C(=O)NC(C(OC)C(N)=O)C(=O)N[C@H](CC(N)=O)C(=O)N(C)[C@@H](CC(C)C)C(=O)O[C@@H]1C)[C@@H](C)C(C)C(N)=O)C(C)(C)O (stereo partly specified)
inhibition zone (IZ) (Candida albicans [19]): 8 mm

COc1ccc(/C=C/CCCC[C@H](C)[C@H](O)[C@@H](O)[C@H]2NC(=O)C[C@@H](O)CNC(=O)CNC(=O)[C@@H](Cc3c(C(=O)O)[nH]c4ccccc34)NC(=O)CN(C)C(=O)C[C@H]3NC(=O)C[C@H]3NC(=O)[C@H]2O)cc1
MIC (Aspergillus fumigatus [20]): 0.6 µg/mL (≈ 0.623 µM)

CO[C@H](c1ccc(O)cc1)[C@@H](NC(=O)[C@H](CCC(N)=O)NC(=O)[C@H](CC(C)C)NC(=O)[C@@H](CCCNC(=N)N)NC(=O)[C@H](NC(=O)[C@H](NC(=O)[C@@H](NC(=O)[C@H](O)[C@H](O)[C@H](CCCNC(=N)N)NC(=O)[C@@H](C)NC(=O)[C@H](C)[C@H](O)[C@H](C)CC(C)C)[C@@H](C)CC(N)=O)[C@@H](C)O)[C@@H](C)O)C(=O)N(C)[C@@H](C)C(=O)O
MIC (Candida albicans [21]): 0.15 µg/mL (≈ 0.1 µM)

CC(=O)OCc1cc(=O)occ1O
MIC (Candida albicans [22]): 1 µg/mL (≈ 5.43 µM) | MIC [23]: 1 µg/mL (≈ 5.43 µM) | MIC (Nannizzia gypsea [24]): 1 µg/mL (≈ 5.43 µM) | MIC (Aspergillus niger [25]): 1 µg/mL (≈ 5.43 µM) | MIC (Epidermophyton floccosum): 1 µg/mL (≈ 5.43 µM) | MIC (Aspergillus fumigatus [26]): 1 µg/mL (≈ 5.43 µM) | MIC (Fusarium oxysporum): 1 µg/mL (≈ 5.43 µM)

CC(=O)OC[C@@]1(COS(=O)(=O)[O-])C(=O)CC[C@]23C[C@]24CC[C@]2(C)[C@@H]([C@H](C)CC(=O)CC(C)C)CC[C@@]2(C)[C@H]4CC[C@@H]13.[Na+]
LC50 (Lindra thalassiae): 0.03 µg/mL
